Test systems include OVCAR-3; SN12C; SK-MEL-28; RXF 393; HCT-15; SF-295; U-251; SW-620; M14; OVCAR-4; OVCAR-8; SK-MEL-5; HT-29; A549; HOP-92; NCI-H522; CAKI-1.
Assay in all cases: NCI tumour cell line growth inhibition, 48 h

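How tested: cells in 96-well plates exposed to compound for 48 hours at five concentrations. Abbreviation: GI50, concentration required for 50% inhibition of growth.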 Activity calls are given as the source filed them. Cut-off read from the data, not from the text of the source: active = GI50 up to about 1.1 µM and inactive = higher.

On to `COC(=O)CC1NC(=O)C1C(C)(OC)OC` (centres undefined), for which the GI50 in the experiment on OVCAR-3 was > 100 µM (inactive); in the experiment with SN12C it was > 100 µM (inactive); in the experiment on SK-MEL-28, > 100 µM (inactive); with RXF 393, > 100 µM (inactive); in the experiment on HCT-15 it was above 100 µM; with SF-295, > 100 µM (inactive). Moreover, the GI50 in the experiment with U-251, with SW-620, in the experiment on M14, in the experiment on OVCAR-4, in the experiment with OVCAR-8 and with SK-MEL-5 was > 100 µM (inactive) in each case. The GI50 with HT-29 and in the experiment with A549 was > 100 µM (inactive) each time.
Regarding `O=C1CC2Sc3ccccc3N=C2N1c1ccc(Cl)cc1Cl` (centres undefined), the GI50 in the experiment with OVCAR-3 was > 100 µM (inactive); with SN12C, 39.9 µM (inactive); with SK-MEL-28, 93.3 µM (inactive); in the experiment on RXF 393, 93.5 µM (inactive); in the experiment with HOP-92, 30.3 µM (inactive); with SF-295, 79.8 µM (inactive). In addition, the GI50 is 32.2 µM (inactive) with U-251; 46.2 µM (inactive) in the experiment on SW-620; 71 µM (inactive) with M14; > 100 µM (inactive) in the experiment with OVCAR-4; 59.3 µM (inactive) in the experiment on OVCAR-8; 81.5 µM (inactive) with SK-MEL-5. In addition, the GI50 in the experiment on HT-29 was 92 µM (inactive); in the experiment with A549, 83.4 µM (inactive).
For `NCCCNC(=O)c1csc(NC(=O)c2csc(NC(=O)CCCN)n2)n1`, the GI50 in the experiment with OVCAR-3 is > 100 µM (inactive); with SN12C, > 100 µM (inactive); in the experiment on SK-MEL-28, > 100 µM (inactive); in the experiment with NCI-H522, > 100 µM (inactive); in the experiment on HOP-92 it was > 100 µM (inactive); in the experiment on HCT-15, above 100 µM. For the same compound, the GI50 with SF-295 was > 100 µM (inactive); in the experiment with U-251 it was > 100 µM (inactive); with M14, > 100 µM (inactive); with OVCAR-4 it was 18.7 µM (inactive); in the experiment with OVCAR-8 it was > 100 µM (inactive); in the experiment on SK-MEL-5, > 100 µM (inactive). Further, the GI50 with CAKI-1, with HT-29 and in the experiment with A549 was > 100 µM (inactive) each time.
For `COc1ccc2c3c([nH]c2c1[N+](=O)[O-])C(C)N(Cc1ccc([N+](=O)[O-])cc1)CC3` (centres undefined), the GI50 is 14 µM (inactive) with OVCAR-3; 18.5 µM (inactive) in the experiment on SN12C; 11.9 µM (inactive) in the experiment on SK-MEL-28; 10.9 µM (inactive) in the experiment on RXF 393; 3.96 µM (inactive) in the experiment with NCI-H522; 15.6 µM in the experiment on HCT-15. For the same compound, the GI50 is 16.3 µM (inactive) with SF-295; 15.7 µM (inactive) in the experiment with U-251; 15.1 µM (inactive) in the experiment with SW-620; 8.43 µM (inactive) in the experiment on M14; 2.16 µM (inactive) with OVCAR-4; 16.2 µM (inactive) with OVCAR-8. In addition, the values for the GI50 in the experiment with CAKI-1, with HT-29 and in the experiment on A549 were 3.89 µM (inactive), 8.75 µM (inactive) and > 100 µM (inactive), respectively.
As to `CCOC(=O)NC(=O)c1cn(CCCCCCCCCCC(=O)N2CCN(CCn3cc(C(=O)NC(=O)OCC)c(=O)[nH]c3=O)CC2)c(=O)[nH]c1=O`, the GI50 was > 100 µM (inactive) in the experiment with OVCAR-3; > 100 µM (inactive) with SN12C; > 100 µM (inactive) in the experiment with SK-MEL-28; > 100 µM (inactive) in the experiment on RXF 393; > 100 µM (inactive) in the experiment on HOP-92; above 100 µM with HCT-15. Also, the GI50 with SF-295, in the experiment on U-251, in the experiment on SW-620, in the experiment with M14, in the experiment on OVCAR-4 and with OVCAR-8 was > 100 µM (inactive) throughout. In addition, the GI50 in the experiment on SK-MEL-5, in the experiment on CAKI-1, in the experiment with HT-29 and in the experiment with A549 was > 100 µM (inactive) in each case.
Turning to `CC1=C(c2ccccc2)CON(c2ccccc2)C1`, the GI50 in the experiment on OVCAR-3 is 85.7 µM (inactive); in the experiment on SN12C, 53.6 µM (inactive); in the experiment with SK-MEL-28 it was 31 µM (inactive); with RXF 393 it was 16.9 µM (inactive); in the experiment on NCI-H522, 15.2 µM (inactive); with HCT-15 it was 28.4 µM. For the same compound, the GI50 with SF-295 is 30.6 µM (inactive); in the experiment with U-251, 25.8 µM (inactive); in the experiment with SW-620 it was 39.4 µM (inactive); in the experiment on M14 it was 33.4 µM (inactive); with OVCAR-4, > 100 µM (inactive); with OVCAR-8, 33.5 µM (inactive). In addition, the GI50 with SK-MEL-5 was 20.5 µM (inactive); in the experiment with CAKI-1 it was 39.6 µM (inactive); in the experiment with HT-29, 36.9 µM (inactive); in the experiment with A549, 54.5 µM (inactive).
On to `O=S(=O)(O)C(F)(F)C(F)(F)C(F)(F)C(F)(F)F`, for which the GI50 was > 100 µM (inactive) with OVCAR-3; > 100 µM (inactive) with SN12C; > 100 µM (inactive) in the experiment on RXF 393; 9.51 µM (inactive) in the experiment on HOP-92; above 100 µM in the experiment on HCT-15; > 100 µM (inactive) in the experiment on SF-295. The GI50 in the experiment on U-251, in the experiment with SW-620, with M14, in the experiment with OVCAR-4, in the experiment on OVCAR-8 and with SK-MEL-5 was > 100 µM (inactive) each time. Further, the GI50 in the experiment on CAKI-1, in the experiment with HT-29 and with A549 was > 100 µM (inactive) each time.
In the case of `O=C1c2ccccc2C(=O)N1C/C=C/CO`, the GI50 in the experiment on OVCAR-3 is > 100 µM (inactive); with SN12C it was > 100 µM (inactive); with SK-MEL-28, > 100 µM (inactive); with RXF 393, > 100 µM (inactive); in the experiment on NCI-H522 it was 98.2 µM (inactive); with HCT-15, above 100 µM. In addition, the GI50 in the experiment with U-251, in the experiment on SW-620, in the experiment on M14, in the experiment with OVCAR-4, in the experiment with OVCAR-8 and in the experiment on SK-MEL-5 was > 100 µM (inactive) in each case. In addition, the GI50 in the experiment on CAKI-1 and in the experiment on A549 was > 100 µM (inactive) in each case.
In the case of `COc1cc2nc(Sc3c([N+](=O)[O-])ncn3C)[nH]c2cc1OC`, the GI50 in the experiment on OVCAR-3 is 46.8 µM (inactive); in the experiment with SN12C it was 16.3 µM (inactive); in the experiment on SK-MEL-28 it was 20.5 µM (inactive); with RXF 393, 16.1 µM (inactive); in the experiment on HOP-92, 16.5 µM (inactive); in the experiment on HCT-15 it was 19.4 µM. Besides, the GI50 is > 100 µM (inactive) in the experiment with SF-295; 31.3 µM (inactive) with U-251; 26 µM (inactive) with SW-620; 87.5 µM (inactive) with M14; 38.5 µM (inactive) in the experiment with OVCAR-4; 15.1 µM (inactive) in the experiment on OVCAR-8. The GI50 in the experiment on SK-MEL-5 was 18.9 µM (inactive); with CAKI-1 it was 4.47 µM (inactive); with HT-29 it was 41.7 µM (inactive); in the experiment with A549 it was 34.8 µM (inactive).
Turning to `COC1CC2C3/C(=N/Nc4ccc([N+](=O)[O-])cc4[N+](=O)[O-])CCC2(C)C3C1` (centres undefined), the GI50 in the experiment with OVCAR-3 is > 10 µM (inactive); in the experiment on SN12C, > 10 µM (inactive); in the experiment with SK-MEL-28, > 100 µM (inactive); in the experiment with NCI-H522 it was > 10 µM (inactive); in the experiment on HOP-92, > 10 µM (inactive); with HCT-15, above 100 µM. For the same compound, the GI50 was > 10 µM (inactive) in the experiment with SF-295; > 10 µM (inactive) in the experiment on U-251; > 10 µM (inactive) with SW-620; > 10 µM (inactive) in the experiment on M14; > 10 µM (inactive) in the experiment with OVCAR-4; > 100 µM (inactive) in the experiment with OVCAR-8. The GI50 is > 10 µM (inactive) with SK-MEL-5, > 10 µM (inactive) in the experiment on CAKI-1, > 10 µM (inactive) with HT-29 and > 100 µM (inactive) in the experiment with A549.
For `O=C(NC(=O)c1cn(CCN2CCN(C(=O)NCCCCCCNC(=O)N3CCN(CCn4cc(C(=O)NC(=O)OCc5ccccc5)c(=O)[nH]c4=O)CC3)CC2)c(=O)[nH]c1=O)OCc1ccccc1`, the GI50 with OVCAR-3 is > 100 µM (inactive); with SN12C, > 100 µM (inactive); in the experiment with SK-MEL-28, > 100 µM (inactive); in the experiment on RXF 393, > 100 µM (inactive); in the experiment on HOP-92, > 100 µM (inactive); with HCT-15, above 100 µM. Moreover, the GI50 in the experiment on SF-295, with U-251, with SW-620, with M14, with OVCAR-4 and in the experiment on OVCAR-8 was > 100 µM (inactive) each time. Besides, the GI50 in the experiment with SK-MEL-5, in the experiment with CAKI-1, with HT-29 and in the experiment on A549 was > 100 µM (inactive) each time.
In the case of `C1=CC=C2NCCC/N=C3/C=CC=CC=C3NCCC/N=C\2C=C1`, the GI50 in the experiment on OVCAR-3 was > 100 µM (inactive); in the experiment with SN12C, > 100 µM (inactive); in the experiment with SK-MEL-28, > 100 µM (inactive); with HOP-92, > 100 µM (inactive); with HCT-15, above 100 µM; in the experiment on SF-295, > 100 µM (inactive). Moreover, the GI50 with U-251, in the experiment on SW-620, in the experiment on M14, in the experiment with OVCAR-4, in the experiment on OVCAR-8 and with SK-MEL-5 was > 100 µM (inactive) throughout. The GI50 with HT-29 and in the experiment on A549 was > 100 µM (inactive) each time.
In the case of `CC(=O)Nc1ccc(C(=O)N2N=C(C)/C(=C/c3cccc([N+](=O)[O-])c3)C2=O)cc1`, the GI50 in the experiment with OVCAR-3, in the experiment on SN12C, in the experiment with SK-MEL-28, in the experiment on NCI-H522, in the experiment with SF-295 and in the experiment with SW-620 was > 100 µM (inactive) each time. In addition, the GI50 in the experiment with M14, in the experiment with OVCAR-4, in the experiment with OVCAR-8, with SK-MEL-5, in the experiment on CAKI-1 and in the experiment on HT-29 was > 100 µM (inactive) throughout. Further, the GI50 with A549 is > 100 µM (inactive).
